Where two headings read alike, the source gives them in different places.
Tests used:
[1] = pH of 0.1M solution of the acids tested (Table 1); assay type: physicochemical
[2] = Conversion of PNMDC to MITC as a function of pH; assay type: physicochemical; settings: FIGS. 1 and 2; over three hours and over five minutes
Source text: In the decomposition of monoalkyldithiocarbamate salt, the rate at which alkyl isothiocyanate is formed can be determined by the pH of the solution. […] At lower pH levels, a competing reaction, particularly hydrolysis to form carbon disulfide and methylammonium ion, can occur, thus lowering the yield of MITC.
While good conversion can occur over a range of pH values, the results shown in FIGS. 1 and 2 indicate an optimum conversion occurring at about pH 3 (e.g., 2.5-3.5).
An HPLC method was developed to allow the reaction mixtures to be analyzed in real time. This procedure stopped the decomposition of PNMDC by converting any unreacted dithiocarbamate ion to a stable nickel salt:
This compound was then detected by its UV absorption at 365 nm. MITC is unaffected by the presence of the Ni^++ ion and is detected by its UV absorption at 230 nm.

Row | Structure (SMILES) | pH of 0.1M Solution [1] | pH of 0.1M Solution ([1]; listed as Citric Acid (2)) | pH of optimum conversion of PNMDC to MITC [2]
1 | O=C(O)c1ccccc1 [Benzoic Acid] | 2.61 | – | –
2 | O=CO [Formic Acid] | 2.39 | – | –
3 | CC(=O)O [Acetic Acid] | 2.88 | – | –
4 | O=C(O)CC(O)(CC(=O)O)C(=O)O [Citric Acid (1), Citric Acid] | 2.06 | 2.88 | –
5 | CNC(=S)[S-].[K+] [PNMDC, potassium N-methyldithiocarbamate] | – | – | ~3

— patent publication US9078436B2 (priority 2012, dated 2015)
